# Measured values reported in US12435091B2, “RNA-binding protein multimerization inhibitors and methods of use thereof” (THE UAB RESEARCH FOUNDATION, priority 2020, dated 2025).
# Several values for one entry are separate records, joined by “and”; a condition that tells them apart may be missing. Equal values may be shown once. Read-outs that look alike come from different tables or passages of the source.
# Tests used:
# [1] = test system: LPS-induced neuroinflammatory response in the CNS; experiment: in vivo LPS mouse model of neuroinflammation; design: species or system mice
# Experimental: Administration of LPS intraperitoneally produces an acute neuroinflammatory response in the CNS including activation of microglia with production of inflammatory cytokines and chemokines. This model was used to test the effect of SRI-42127 on attenuating the neuroinflammatory response.
# Mice were injected with LPS intraperitoneally (i.p.) and then given SRI-42127 at 15 mg/kg (or vehicle) i.p. starting at 30 min post LPS injection and then three subsequent doses at 6 hours, 12 hours, and 18 hours. Brains were harvested at 24 hours for analysis. To determine the impact of SRI-42127 on HuR localization in microglia in the brain, sections from the hippocampus from 3 vehicle control and 3 SRI-42127 treated mice were examined. Tissue sections were stained with IBA1 and HuR. Quantification methods for HuR localization were similar to immunocytochemistry. Briefly, IBA1+ cells were identified and the outline of the cell was traced with Fiji software. Nuclei were localized by DAPI staining. Nuclear and cytoplasmic HuR immunofluorescence was quantitated to calculate a N/C ratio. In vehicle-treated animals, there was translocation of HuR into the cytoplasm as indicated by a merged yellow signal whereas in SRI-42127 treated mice, there was little to no merged signal. Next, 20-30 IBA1+ cells from sections in 3 control and 3 treated mice were assessed. A 2-fold increase in the N/C ratio of mice treated with SRI-42127 was observed, confirming the effect of the drug as shown in FIG. 18 (bottom).
# Next, the activation state of microglia was studied by measuring IBA1 intensity. Sections from the hippocampal region were stained with IBA1 and fluorescence intensity was measured using Fiji software from 5 sections of 3 mice per group. The reviewer was blinded to the identity of the samples.
# Finally, the impact of SRI-42127 on infiltration of neutrophils and monocytes into the brain after LPS administration i.p. was assessed. Microglial HuR knockout (KO) mice were also assessed. […]
# [2] = in vivo pharmacokinetic study in mice by ip administration; design: species or system C57Bl/6 mice; details: for concentration at 0.167 h / concentration at 0.5 h / Kp at 0.167 h / Kp at 0.5 h / Kp at 1 h / AUC(0-inf) / AUC(0-t) / Cmax / Tmax / MRT inf / half-life / Brain concentration / Plasma concentration / Ratio (Brain/Plasma) / AUCExtrap—obs: mouse; for concentration at 0.167 h / concentration at 0.5 h / Kp at 0.167 h / Kp at 0.5 h / Kp at 1 h / Brain concentration / Plasma concentration / Ratio (Brain/Plasma): 10 mg/kg IP; for AUC(0-inf) / AUC(0-t) / Cmax / Tmax / MRT inf / half-life: C57Bl/6; for MRT inf: read-out: MRTInf_obs
# Experimental: The in vivo PK study for SRI-42127 was performed by Pharmaron (Beijing, China); pharmacokinetics were evaluated in the C57Bl/6 mice. […]
# [3] = test system: HuR cytoplasmic translocation in primary microglial cells; experiment: Imagestream single cell flow cytometry of HuR location in LPS-activated microglia; assay type: cell-based, mouse; details: 1 μM
# Experimental: Cultured primary microglial cells isolated from neonatal mouse brain were treated with LPS to achieve activation. Cells were then treated with varying doses of SRI-42127 or vehicle. Imagestream single cell flow cytometry was used to track the location of HuR within microglial cells as depicted in FIG. 11, Panel A. DAPI was used as a flow marker for nuclear localization. For each cell, the percentage of HuR immunofluorescence that colocalized with the nuclear compartment versus the cytoplasmic compartment was quantified.
# In the unstimulated state (DMSO), the characteristic nuclear predominance of HuR was observed as reflected by a low percentage of cells with high HuR in the cytoplasm. With LPS stimulation, there was an ˜8-fold increase in the percent of cells with high levels of HuR in the cytoplasm (˜60%). With SRI-42127 treatment, there was a significant dose-dependent decrease in cells with high cytoplasmic HuR. At 1 μM of SRI-42127, the percent of cells with high HuR was similar to resting (unactivated) microglia (˜10%).
# [4] = target: PIM1 (Homo sapiens, UniProt P11309); experiment: SelectScreen kinase profiling, ZLYTE; assay type: biochemical
# Sequence of PIM1 (P11309 whole entry): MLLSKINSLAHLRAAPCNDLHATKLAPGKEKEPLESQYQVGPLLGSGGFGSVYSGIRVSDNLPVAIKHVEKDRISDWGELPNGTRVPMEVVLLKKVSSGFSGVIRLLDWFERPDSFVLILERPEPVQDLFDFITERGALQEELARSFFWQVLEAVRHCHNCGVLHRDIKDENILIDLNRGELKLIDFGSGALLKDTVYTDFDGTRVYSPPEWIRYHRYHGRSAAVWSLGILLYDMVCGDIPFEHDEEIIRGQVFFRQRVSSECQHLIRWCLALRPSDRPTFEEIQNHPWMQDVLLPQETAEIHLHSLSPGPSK
# Experimental: (§1) The kinase inhibitory potentials of compounds as described herein (e.g., SRI-42127 and SRI-41664) were evaluated by ThermoFisher Scientific's SelectScreen™ Kinase Profiling Service. The following kinase inhibitory assays were utilized: ZLYTE (Madison, WI) for NTRK1, PIM1, and cMET kinases; LanthaScreen Binding (Madison, WI) for AAK1 kinase; and Adapta (Madison, WI) for IRAK1 kinase.
# [5] = target: cMET (Homo sapiens, UniProt P08581); experiment: SelectScreen kinase profiling, ZLYTE; assay type: biochemical
# Sequence of cMET (P08581 25-1390): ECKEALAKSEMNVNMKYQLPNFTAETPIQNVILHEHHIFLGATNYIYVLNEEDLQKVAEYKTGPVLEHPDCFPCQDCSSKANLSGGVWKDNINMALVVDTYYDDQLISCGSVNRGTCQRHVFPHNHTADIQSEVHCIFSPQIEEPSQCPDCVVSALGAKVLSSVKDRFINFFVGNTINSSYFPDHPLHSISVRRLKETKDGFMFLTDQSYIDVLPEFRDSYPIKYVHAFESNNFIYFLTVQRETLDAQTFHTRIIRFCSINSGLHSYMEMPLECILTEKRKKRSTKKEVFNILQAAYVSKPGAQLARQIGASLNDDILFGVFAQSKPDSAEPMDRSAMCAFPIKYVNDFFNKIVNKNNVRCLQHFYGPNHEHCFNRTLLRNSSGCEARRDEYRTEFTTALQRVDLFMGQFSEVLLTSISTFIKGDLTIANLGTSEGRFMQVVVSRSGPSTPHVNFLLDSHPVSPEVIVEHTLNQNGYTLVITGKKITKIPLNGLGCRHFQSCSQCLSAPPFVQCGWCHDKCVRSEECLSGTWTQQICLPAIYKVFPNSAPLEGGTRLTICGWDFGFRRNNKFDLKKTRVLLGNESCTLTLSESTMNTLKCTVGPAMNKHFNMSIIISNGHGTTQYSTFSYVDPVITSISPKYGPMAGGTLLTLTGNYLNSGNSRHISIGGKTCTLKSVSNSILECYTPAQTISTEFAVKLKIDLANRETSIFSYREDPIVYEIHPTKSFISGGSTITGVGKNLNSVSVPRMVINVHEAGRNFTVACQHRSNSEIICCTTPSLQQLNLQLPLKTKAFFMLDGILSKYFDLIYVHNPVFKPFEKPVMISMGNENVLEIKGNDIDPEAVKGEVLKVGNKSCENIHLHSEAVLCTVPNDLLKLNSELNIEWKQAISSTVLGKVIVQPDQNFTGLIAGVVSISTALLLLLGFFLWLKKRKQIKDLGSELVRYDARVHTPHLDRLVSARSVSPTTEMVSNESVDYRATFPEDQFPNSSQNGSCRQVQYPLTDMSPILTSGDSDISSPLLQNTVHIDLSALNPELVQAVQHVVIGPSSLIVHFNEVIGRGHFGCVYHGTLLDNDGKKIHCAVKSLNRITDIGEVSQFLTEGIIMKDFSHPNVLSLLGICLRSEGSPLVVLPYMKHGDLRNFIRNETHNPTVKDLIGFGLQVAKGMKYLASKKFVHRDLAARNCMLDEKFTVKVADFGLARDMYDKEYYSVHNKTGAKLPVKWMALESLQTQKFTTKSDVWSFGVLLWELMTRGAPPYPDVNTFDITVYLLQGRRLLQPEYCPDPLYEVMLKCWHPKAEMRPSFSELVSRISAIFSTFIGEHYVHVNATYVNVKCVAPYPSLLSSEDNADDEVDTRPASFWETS
# Experimental: as §1
# [6] = target: TRKA (NTRK1) (Homo sapiens, UniProt P04629); experiment: SelectScreen kinase profiling, ZLYTE; assay type: biochemical
# Sequence of TRKA (NTRK1) (P04629 33-796): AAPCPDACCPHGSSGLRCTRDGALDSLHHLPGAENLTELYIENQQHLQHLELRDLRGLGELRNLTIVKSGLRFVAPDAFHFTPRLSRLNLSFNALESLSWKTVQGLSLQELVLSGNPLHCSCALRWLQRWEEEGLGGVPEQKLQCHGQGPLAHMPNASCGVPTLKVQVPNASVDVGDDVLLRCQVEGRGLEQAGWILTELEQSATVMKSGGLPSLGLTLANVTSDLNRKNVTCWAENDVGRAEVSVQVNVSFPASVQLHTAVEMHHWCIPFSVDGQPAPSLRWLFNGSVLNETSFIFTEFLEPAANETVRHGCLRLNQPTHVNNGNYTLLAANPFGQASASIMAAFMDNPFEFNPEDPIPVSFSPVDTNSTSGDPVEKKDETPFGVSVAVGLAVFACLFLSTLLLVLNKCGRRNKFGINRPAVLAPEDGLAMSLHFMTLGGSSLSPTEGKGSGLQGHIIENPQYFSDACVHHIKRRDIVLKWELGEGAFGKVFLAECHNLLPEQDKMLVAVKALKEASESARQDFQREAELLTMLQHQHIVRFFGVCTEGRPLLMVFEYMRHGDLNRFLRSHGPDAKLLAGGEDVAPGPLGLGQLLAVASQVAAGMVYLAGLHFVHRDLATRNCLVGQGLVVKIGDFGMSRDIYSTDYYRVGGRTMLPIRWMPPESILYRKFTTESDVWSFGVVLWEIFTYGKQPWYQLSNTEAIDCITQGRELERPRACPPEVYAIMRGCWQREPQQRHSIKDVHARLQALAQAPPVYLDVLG
# Experimental: as §1
# [7] = 15 mg/kg i.p., all brain regions at 24 hours
# [8] = 0.167 h, individual animals, 10 mg/kg
# [9] = 0.5 h, individual animals, 10 mg/kg
# [10] = 1 h, individual animals, 10 mg/kg
compound,measurement,setting,value
CN(c1ccc2ncc(-c3ccc4cn[nH]c4c3)n2n1)C1CCOCC1 [Compound 19],increase in the HuR N/C ratio in microglia,"[1]; 15 mg/kg i.p. at 30 min, 6, 12 and 18 hours post LPS, hippocampus at 24 hours",2 fold
same,attenuation of infiltrating monocytes,[1]; [7],1.3- to 2 fold
same,attenuation of infiltrating neutrophils,[1]; [7],2 to 3 fold
same,concentration at 0.167 h,"[2]; C57Bl/6, mouse, brain, ip, 10 mg/kg, 0.167 h, individual animals, read-out: Brain concentration",1220 ng/g
same,concentration at 0.5 h,"[2]; C57Bl/6, mouse, brain, ip, 10 mg/kg, 0.5 h, individual animals, read-out: Brain concentration",420 ng/g
same,Kp,"[2]; C57Bl/6, mouse, brain/plasma, ip, 10 mg/kg, mice, ip administration, all time points, read-out: brain/plasma concentration ratio",~0.4
same,Kp at 0.167 h,"[2]; C57Bl/6, mouse, brain/plasma, ip, 10 mg/kg, 0.167 h, individual animals, read-out: Ratio (Brain/Plasma)",0.419
same,Kp at 0.167 h,"[2]; C57Bl/6, mouse, brain/plasma, ip, 10 mg/kg, 0.167 h, read-out: Ratio (Brain/Plasma) Mean",0.399
same,Kp at 0.5 h,"[2]; C57Bl/6, mouse, brain/plasma, ip, 10 mg/kg, 0.5 h, individual animals, read-out: Ratio (Brain/Plasma)",0.536
same,Kp at 0.5 h,"[2]; C57Bl/6, mouse, brain/plasma, ip, 10 mg/kg, 0.5 h, read-out: Ratio (Brain/Plasma) Mean",0.455
same,Kp at 1 h,"[2]; C57Bl/6, mouse, brain/plasma, ip, 10 mg/kg, 1 h, individual animals, read-out: Ratio (Brain/Plasma)",0.408
same,Kp at 1 h,"[2]; C57Bl/6, mouse, brain/plasma, ip, 10 mg/kg, 1 h, read-out: Ratio (Brain/Plasma) Mean",0.398
same,concentration at 0.167 h,"[2]; C57Bl/6, mouse, plasma, ip, 10 mg/kg, 0.167 h, individual animals, read-out: Plasma concentration",2910 ng/mL
same,concentration at 0.5 h,"[2]; C57Bl/6, mouse, plasma, ip, 10 mg/kg, 0.5 h, individual animals, read-out: Plasma concentration",782 ng/mL
same,AUC(0-inf),"[2]; 10 mg/kg ip, Brain",550 ng·h/mL
same,AUC(0-t),"[2]; 10 mg/kg ip, Brain",541 ng·h/mL
same,Cmax,"[2]; 10 mg/kg ip, Brain",1370 ng/mL
same,Tmax,"[2]; 10 mg/kg ip, Brain",10 min
same,MRT inf,"[2]; 10 mg/kg ip, Brain",18.8 min
same,half-life,"[2]; 10 mg/kg ip, Brain, read-out: T½ (converted)",9.6 min
same,AUC(0-inf),"[2]; 10 mg/kg ip, Plasma",1340 ng·h/mL
same,AUC(0-t),"[2]; 10 mg/kg ip, Plasma",1320 ng·h/mL
same,Cmax,"[2]; 10 mg/kg ip, Plasma",3460 ng/mL
same,Tmax,"[2]; 10 mg/kg ip, Plasma",10 min
same,MRT inf,"[2]; 10 mg/kg ip, Plasma",18.4 min
same,half-life,"[2]; 10 mg/kg ip, Plasma, read-out: T½ (converted)",9.6 min
same,half-life,"[2]; dose of 10 mg/kg by IP, read-out: half-life (converted)",9.6 min
same,brain/plasma concentration ratio,"[2]; mice, ip administration, all time points, listed as SRI-42127",0.42±0.05
same,Brain concentration,[2]; [8],1375 ng/g and 1520 ng/g
same,Plasma concentration,[2]; [8],3450 ng/mL and 4010 ng/mL
same,Ratio (Brain/Plasma),[2]; [8],0.379
same,Brain concentration,[2]; [9],545 ng/g and 391 ng/g
same,Plasma concentration,[2]; [9],1430 ng/mL and 870 ng/mL
same,Ratio (Brain/Plasma),[2]; [9],0.381 and 0.449
same,Brain concentration,[2]; [10],53.0 ng/g and 43.9 ng/g and 19.7 ng/g
same,Plasma concentration,[2]; [10],130 ng/mL and 104 ng/mL and 53.9 ng/mL
same,Ratio (Brain/Plasma),[2]; [10],0.422 and 0.365
same,AUCExtrap—obs,"[2]; 10 mg/kg ip, Brain",1.63%
same,AUCExtrap—obs,"[2]; 10 mg/kg ip, Plasma",1.65%
same,percent of cells with high cytoplasmic HuR,[3],~10%
same,IC50,[4],668 nM
same,IC50,[5],> 10 µM
same,IC50,[6],117 nM
